Measurements published in US10538521B2, “Pyrimidine derivative having antimalarial activity” (CARNA BIOSCIENCES, INC., priority 2016, dated 2020).

Assays:
[1] = test system: FCR3 strain, a drug sensitive strain of Plasmodium falciparum; assay: In vitro antimalarial assay (p-LDH, Malstat), FCR3 strain; assay type: cell-based; details: P. falciparum FCR3 (drug sensitive), 72 h culture, p-LDH readout, read-out: Antimalarial activity (IC50 value), Strain FCR3
In short: (§1)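 IC50 derived from concentration-response of parasite lactate dehydrogenase signal (Malstat reagent, NBT/PES formazan at 655 nm) after freeze-thaw lysis. Infected erythrocytes (hematocrit 2%, parasitaemia 0.5 or 1%) exposed 72 h to 12.5–0.0001 μM final compound under 3% O2-4% CO2-93% N2, FCR3 and K1 alike.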

[2] = test system: K1 strain, a drug resistant strain of Plasmodium falciparum; assay: In vitro antimalarial assay (p-LDH, Malstat), K1 strain; assay type: cell-based; details: P. falciparum K1 (drug resistant), 72 h culture, p-LDH readout, read-out: Antimalarial activity (IC50 value), Strain K1
In short: as §1

Structure (SMILES)	IC50 [1]	IC50 [2]
COc1ccnc(Nc2nc(Nc3ccn4ccnc4c3)cc(N3CCC4(CCCC4)C3)n2)c1 [Example 207, N4-(imidazo[1,2-a]pyridin-7-yl)-N2-(4-methoxypyridin-2-yl)-6-(2-azaspiro[4.4]nonan-2-yl) pyrimidine-2,4-diamine]	100 to 1000 nM	100 to 1000 nM
CCCCc1cccc(Nc2nc(Nc3ccn4ccnc4c3)cc(N3CC4(COC4)C3)n2)n1 [Example 181, N2-(6-butylpyridin-2-yl)-N4-(imidazo[1,2-a]pyridin-7-yl)-6-(2-oxa-6-azaspiro[3.3]heptan-6-yl)pyrimidine-2,4-diamine]	100 to 1000 nM	< 100 nM
Cc1nc(Nc2nc(Nc3ccn4ccnc4c3)cc(N3CCCCC3)n2)ccc1Cl [Example 203, N2-(5-chloro-6-methylpyridin-2-yl)-N4-(imidazo[1,2-a]pyridin-7-yl)-6-(piperidin-1-yl) pyrimidine-2,4-diamine]	100 to 1000 nM	100 to 1000 nM
CCc1ccnc(Nc2nc(Nc3ccn4ccnc4c3)cc(N3CCN(C(=O)OC(C)(C)C)[C@@H](C)C3)n2)c1 [Example 103, (S)-tert-butyl 4-(2-((4-ethylpyridin-2-yl)amino)-6-(imidazo[1,2-a]pyridin-7-ylamino)pyrimidin-4-yl)-2-methylpiperazine-1-carboxylate]	100 to 1000 nM	100 to 1000 nM
CC(C)(C)c1cccc(Nc2nc(Nc3ccn4ccnc4c3)cc(N3CCOCC3)n2)n1 [Example 124, N2-(6-(tert-butyl)pyridin-2-yl)-N4-(imidazo[1,2-a]pyridin-7-yl)-6-morpholinopyrimidine-2,4-diamine]	100 to 1000 nM	100 to 1000 nM
COCCOc1ccc(Nc2nc(Nc3ccn4ccnc4c3)cc(N3CCOCC3)n2)cn1 [Example 66, N4-(imidazo[1,2-a]pyridin-7-yl)-N2-(6-(2-methoxyethoxy)-pyridin-3-yl)-6-morpholino-pyrimidine-2,4-diamine]	100 to 1000 nM	100 to 1000 nM
CCc1cccc(Nc2nc(Nc3ccn4ccnc4c3)cc(N3CCOCC3)n2)n1 [Example 107, N2-(6-ethylpyridin-2-yl)-N4-(imidazo[1,2-a]pyridin-7-yl)-6-morpholinopyrimidine-2,4-diamine]	< 100 nM	< 100 nM
c1cn2ccc(Nc3cc(N4CCOCC4)nc(Nc4ccc(OC5CCCCC5)nc4)n3)cc2n1 [Example 81, N2-(6-(cyclohexyloxy)pyridin-3-yl)-N4-(imidazo[1,2-a]pyridin-7-yl)-6-morpholinopyrimidine-2,4-diamine]	100 to 1000 nM	100 to 1000 nM
Cc1cc(CC(C)C)nc(Nc2nc(Nc3ccn4ccnc4c3)cc(N3CCCCC3)n2)c1 [Example 188, N4-(imidazo[1,2-a]pyridin-7-yl)-N2-(6-isobutyl-4-methylpyridin-2-yl)-6-(piperidin-1-yl) pyrimidine-2,4-diamine]	< 100 nM	< 100 nM
Cc1ccc(Nc2nc(Nc3ccn4ccnc4c3)cc(N3CCCCC3)n2)nc1 [Example 26, N4-(imidazo[1,2-a]pyridin-7-yl)-N2-(5-methylpyridin-2-yl)-6-(piperidin-1-yl)pyrimidine-2,4-diamine]	< 100 nM	< 100 nM
CCOc1cc(Nc2ccn3ccnc3c2)nc(Nc2cccc(C)n2)n1 [Example 29, 6-ethoxy-N4-(imidazo[1,2-a]pyridin-7-yl)-N2-(6-methylpyridin-2-yl)pyrimidine-2,4-diamine]	100 to 1000 nM	100 to 1000 nM
CCOc1cc(Nc2ccn3ccnc3c2)nc(Nc2cc(C)ccn2)n1 [Example 36, 6-ethoxy-N4-(imidazo[1,2-a]pyridin-7-yl)-N2-(4-methylpyridin-2-yl) pyrimidine-2,4-diamine]	1000 to 10000 nM	1000 to 10000 nM
Cc1ccc(Nc2nc(Nc3ccn4ccnc4c3)cc(N(C)C)n2)cn1 [Example 83, N4-(imidazo[1,2-a]pyridin-7-yl)-N6,N6-dimethyl-N2-(6-methylpyridin-3-yl)pyrimidine-2,4,6-triamine]	100 to 1000 nM	1000 to 10000 nM
Cc1cc(C)nc(Nc2nc(Nc3ccn4ccnc4c3)cc(N3CCC(N4CCCC4)C3)n2)c1 (centres unmarked) [Example 148, 6-([1,3′-bipyrrolidin]-1′-yl)-N2-(4,6-dimethylpyridin-2-yl)-N4-(imidazo[1,2-a]pyridin-7-yl)pyrimidine-2,4-diamine]	< 100 nM	< 100 nM
Cc1cccnc1Nc1nc(Nc2ccn3ccnc3c2)cc(N2CCOCC2)n1 [Example 9, N4-(Imidazo[1,2-a]pyridin-7-yl)-N2-(3-methylpyridin-2-yl)-6-morpholinopyrimidine-2,4-diamine]	< 100 nM	100 to 1000 nM
COC1CCN(c2cc(Nc3ccn4ccnc4c3)nc(Nc3cc(C)cc(C)n3)n2)C1 (centres unmarked) [Example 140, N2-(4,6-dimethylpyridin-2-yl)-N4-(imidazo[1,2-a]pyridin-7-yl)-6-(3-methoxypyrrolidin-1-yl)pyrimidine-2,4-diamine]	< 100 nM	< 100 nM
CC(C)(C)c1ccnc(Nc2nc(Nc3ccn4ccnc4c3)cc(N3CCOCC3)n2)c1 [Example 67, N2-(4-(tert-butyl)pyridin-2-yl)-N4-(imidazo[1,2-a]pyridin-7-yl)-6-morpholinopyrimidine-2,4-diamine]	100 to 1000 nM	100 to 1000 nM
Cc1ccc(Nc2nc(Nc3ccn4ccnc4c3)cc(N3CCCCC3)n2)cn1 [Example 79, N4-(imidazo[1,2-a]pyridin-7-yl)-N2-(6-methylpyridin-3-yl)-6-(piperidin-1-yl)pyrimidine-2,4-diamine]	100 to 1000 nM	100 to 1000 nM
Cc1cc(C)nc(Nc2nc(Nc3ccn4ccnc4c3)cc(N3CCC(O)C3)n2)c1 (centres unmarked) [Example 136, 1-(2-((4,6-dimethylpyridin-2-yl)amino)-6-(imidazo[1,2-a]pyridin-7-ylamino)pyrimidin-4-yl)pyrrolidin-3-ol]	< 100 nM	< 100 nM

The remaining lines, values ahead:

IC50 [1]	IC50 [2]	Structure (SMILES)
< 100 nM	< 100 nM	Cc1cc(C)nc(Nc2nc(Nc3ccn4ccnc4c3)cc(N3CCC(O)CC3)n2)c1 [Example 130, 1-(2-((4,6-dimethylpyridin-2-yl)amino)-6-(imidazo[1,2-a]pyridin-7-ylamino)pyrimidin-4-yl)piperidin-4-ol]
< 100 nM	< 100 nM	CCc1ccnc(Nc2nc(Nc3ccn4ccnc4c3)cc(N3CC[C@H](N(C)C)C3)n2)c1 [Example 126, (S)-6-(3-(dimethylamino)pyrrolidin-1-yl)-N2-(4-ethylpyridin-2-yl)-N4-(imidazo[1,2-a]pyridin-7-yl)pyrimidine-2,4-diamine]
< 100 nM	100 to 1000 nM	CN(C)CCc1cccc(Nc2nc(Nc3ccn4ccnc4c3)cc(N3CCCC3)n2)n1 [Example 172, N2-{6-[2-(dimethylamino)ethyl]pyridin-2-yl}-N4-(imidazo[1,2-a]pyridin-7-yl)-6-(pyrrolidin-1-yl)pyrimidine-2,4-diamine]
< 100 nM	< 100 nM	Cc1cccc(Nc2nc(Nc3ccn4ccnc4c3)cc(N3CCOCC3)n2)n1 [Example 10, N4-(Imidazo[1,2-a]pyridin-7-yl)-N2-(6-methylpyridin-2-yl)-6-morpholinopyrimidine-2,4-diamine]
< 100 nM	100 to 1000 nM	FC(F)(F)c1ccnc(Nc2nc(Nc3ccn4ccnc4c3)cc(N3CCOCC3)n2)c1 [Example 47, N4-(imidazo[1,2-a]pyridin-7-yl)-6-morpholino-N2-(4-(trifluoromethyl)pyridin-2-yl) pyrimidine-2,4-diamine]
< 100 nM	100 to 1000 nM	CC(C)c1cccc(Nc2nc(Nc3ccn4ccnc4c3)cc(N3CCCCC3)n2)n1 [Example 121, N4-(imidazo[1,2-a]pyridin-7-yl)-N2-(6-isopropylpyridin-2-yl)-6-(piperidin-1-yl)pyrimidine-2,4-diamine]
< 100 nM	< 100 nM	Cc1ccnc(Nc2nc(N)cc(Nc3ccn4ccnc4c3)n2)c1 [Example 50, N4-(imidazo[1,2-a]pyridin-7-yl)-N2-(4-methylpyridin-2-yl) pyrimidine-2,4,6-triamine]
< 100 nM	100 to 1000 nM	c1ccc(Oc2ccc(Nc3nc(Nc4ccn5ccnc5c4)cc(N4CCOCC4)n3)cn2)cc1 [Example 90, N4-(imidazo[1,2-a]pyridin-7-yl)-6-morpholino-N2-(6-phenoxypyridin-3-yl)pyrimidine-2,4-diamine]
< 100 nM	< 100 nM	CCc1cccc(Nc2nc(Nc3ccn4ccnc4c3)cc(N3CCCCC3)n2)n1 [Example 95, N2-(6-ethylpyridin-2-yl)-N4-(imidazo[1,2-a]pyridin-7-yl)-6-(piperidin-1-yl)pyrimidine-2,4-diamine]
< 100 nM	< 100 nM	Cc1cc(C)nc(Nc2nc(Nc3ccn4ccnc4c3)cc(N3CC=CC3)n2)c1 [Example 139, 6-(2,5-dihydro-1H-pyrrol-1-yl)-N2-(4,6-dimethylpyridin-2-yl)-N4-(imidazo[1,2-a]pyridin-7-yl)pyrimidine-2,4-diamine]
< 100 nM	< 100 nM	CCc1ccnc(Nc2nc(Nc3ccn4ccnc4c3)cc(N3CC[C@@H](N(C)C)C3)n2)c1 [Example 125, (R)-6-(3-(dimethylamino)pyrrolidin-1-yl)-N2-(4-ethylpyridin-2-yl)-N4-(imidazo[1,2-a]pyridin-7-yl)pyrimidine-2,4-diamine]
< 100 nM	< 100 nM	Cc1cc(C)nc(Nc2nc(Nc3ccn4ccnc4c3)cc(N3CCC(N4CCOCC4)CC3)n2)c1 [Example 132, N2-(4,6-dimethylpyridin-2-yl)-N4-(imidazo[1,2-a]pyridin-7-yl)-6-(4-morpholinopiperidin-1-yl)pyrimidine-2,4-diamine]
